Measurements reported in patent publication US20260206755A1, “COMPOUNDS AND COMPOSITIONS HAVING KNOCK-DOWN OR BLOOD FEED INHIBITION ACTIVITY AGAINST INSECT PESTS” (priority 2017, published 2026).

What follows are molecules tested on Anopheles stephensi (assay: Anopheles stephensi treated well plate contact test: knockdown and mortality). Settings: Anopheles stephensi; test compound 0.02 ppm, without TFNA-AM, after 24 hours; read-out: mortality % 24, without TFNA-AM.
Assay type: in vivo
Description: Examples Anopheles stephensi (Indian Malaria Mosquito)
The individual wells of twelve (12) well tissue culture plates were treated with 200 μl of an ethanol solution containing a test compound of Table 1 or Table 2 at a defined concentration and repeated with also 200 μl of an ethanol solution containing in addition 2 ppm TFNA-AM. Once the deposits were dry, five non-blood fed adult female Anopheles stephensi (between two to five day old) were added to each well, and sustained with a 10% sucrose solution in a cotton wool plug. Assessment of the knockdown after 1 hour, and mortality after 24 and 48 hours was carried out.
In case of multiple tests, the mean value is reported.

Row | SMILES | mortality at 0.02 ppm [%]
1 | N#Cc1nn(-c2c(Cl)cc(C(F)(F)F)cc2Cl)c(N)c1[S+]([O-])C(F)(F)F (stereo not drawn) [Fipronil] | 0

Same assay, conditions: Anopheles stephensi; test compound 0.02 ppm, without TFNA-AM, after 48 hours; read-out: mortality % 48, without TFNA-AM

Row | SMILES | mortality at 0.02 ppm [%]
2 | N#Cc1nn(-c2c(Cl)cc(C(F)(F)F)cc2Cl)c(N)c1[S+]([O-])C(F)(F)F (stereo not drawn) [Fipronil] | 20

Same assay, conditions: Anopheles stephensi; test compound 0.02 ppm, without TFNA-AM, knockdown after 1 hour; read-out: Knock Down, without TFNA-AM

Row | SMILES | pest or weed control at 0.02 ppm [%]
3 | N#Cc1nn(-c2c(Cl)cc(C(F)(F)F)cc2Cl)c(N)c1[S+]([O-])C(F)(F)F (stereo not drawn) [Fipronil] | 0

Same assay, conditions: Anopheles stephensi; test compound 0.2 ppm, without TFNA-AM, after 24 hours; read-out: mortality % 24, without TFNA-AM

Row | SMILES | mortality at 0.2 ppm [%]
4 | OC(c1ccc(Cl)cc1)(c1ccc(Cl)cc1)C(Cl)(Cl)Cl [Dicofol] | 0
5 | N#Cc1nn(-c2c(Cl)cc(C(F)(F)F)cc2Cl)c(N)c1[S+]([O-])C(F)(F)F (stereo not drawn) [Fipronil] | 20

Same assay, conditions: Anopheles stephensi; test compound 0.2 ppm, without TFNA-AM, after 48 hours; read-out: mortality % 48, without TFNA-AM

Row | SMILES | mortality at 0.2 ppm [%]
6 | OC(c1ccc(Cl)cc1)(c1ccc(Cl)cc1)C(Cl)(Cl)Cl [Dicofol] | 0
7 | N#Cc1nn(-c2c(Cl)cc(C(F)(F)F)cc2Cl)c(N)c1[S+]([O-])C(F)(F)F (stereo not drawn) [Fipronil] | 40

Same assay, conditions: Anopheles stephensi; test compound 0.2 ppm, without TFNA-AM, knockdown after 1 hour; read-out: Knock Down, without TFNA-AM

Row | SMILES | pest or weed control at 0.2 ppm [%]
8 | OC(c1ccc(Cl)cc1)(c1ccc(Cl)cc1)C(Cl)(Cl)Cl [Dicofol] | 0
9 | N#Cc1nn(-c2c(Cl)cc(C(F)(F)F)cc2Cl)c(N)c1[S+]([O-])C(F)(F)F (stereo not drawn) [Fipronil] | 0

Same assay, conditions: Anopheles stephensi; test compound 2 ppm, without TFNA-AM, after 24 hours; read-out: mortality % 24, without TFNA-AM

Row | SMILES | mortality at 2 ppm [%]
10 | OC(c1ccc(Cl)cc1)(c1ccc(Cl)cc1)C(Cl)(Cl)Cl [Dicofol] | 0
11 | N#Cc1nn(-c2c(Cl)cc(C(F)(F)F)cc2Cl)c(N)c1[S+]([O-])C(F)(F)F (stereo not drawn) [Fipronil] | 40

Same assay, conditions: Anopheles stephensi; test compound 2 ppm, without TFNA-AM, after 48 hours; read-out: mortality % 48, without TFNA-AM

Row | SMILES | mortality at 2 ppm [%]
12 | OC(c1ccc(Cl)cc1)(c1ccc(Cl)cc1)C(Cl)(Cl)Cl [Dicofol] | 0
13 | N#Cc1nn(-c2c(Cl)cc(C(F)(F)F)cc2Cl)c(N)c1[S+]([O-])C(F)(F)F (stereo not drawn) [Fipronil] | 100

Same assay, conditions: Anopheles stephensi; test compound 2 ppm, without TFNA-AM, knockdown after 1 hour; read-out: Knock Down, without TFNA-AM

Row | SMILES | pest or weed control at 2 ppm [%]
14 | OC(c1ccc(Cl)cc1)(c1ccc(Cl)cc1)C(Cl)(Cl)Cl [Dicofol] | 0
15 | N#Cc1nn(-c2c(Cl)cc(C(F)(F)F)cc2Cl)c(N)c1[S+]([O-])C(F)(F)F (stereo not drawn) [Fipronil] | 0

Same assay, conditions: Anopheles stephensi; test compound 20 ppm, without TFNA-AM, after 24 hours; read-out: mortality % 24, without TFNA-AM

Row | SMILES | mortality at 20 ppm [%]
16 | OC(c1ccc(Cl)cc1)(c1ccc(Cl)cc1)C(Cl)(Cl)Cl [Dicofol] | 0
17 | N#Cc1nn(-c2c(Cl)cc(C(F)(F)F)cc2Cl)c(N)c1[S+]([O-])C(F)(F)F (stereo not drawn) [Fipronil] | 100

Same assay, conditions: Anopheles stephensi; test compound 20 ppm, without TFNA-AM, after 48 hours; read-out: mortality % 48, without TFNA-AM

Row | SMILES | mortality at 20 ppm [%]
18 | OC(c1ccc(Cl)cc1)(c1ccc(Cl)cc1)C(Cl)(Cl)Cl [Dicofol] | 0
19 | N#Cc1nn(-c2c(Cl)cc(C(F)(F)F)cc2Cl)c(N)c1[S+]([O-])C(F)(F)F (stereo not drawn) [Fipronil] | 100

Same assay, conditions: Anopheles stephensi; test compound 20 ppm, without TFNA-AM, knockdown after 1 hour; read-out: Knock Down, without TFNA-AM

Row | SMILES | pest or weed control at 20 ppm [%]
20 | OC(c1ccc(Cl)cc1)(c1ccc(Cl)cc1)C(Cl)(Cl)Cl [Dicofol] | 0
21 | N#Cc1nn(-c2c(Cl)cc(C(F)(F)F)cc2Cl)c(N)c1[S+]([O-])C(F)(F)F (stereo not drawn) [Fipronil] | 0

Same assay, conditions: Anopheles stephensi; test compound 200 ppm, without TFNA-AM, after 24 hours; read-out: mortality % 24, without TFNA-AM

Row | SMILES | mortality at 200 ppm [%]
22 | OC(c1ccc(Cl)cc1)(c1ccc(Cl)cc1)C(Cl)(Cl)Cl [Dicofol] | 0

Same assay, conditions: Anopheles stephensi; test compound 200 ppm, without TFNA-AM, after 48 hours; read-out: mortality % 48, without TFNA-AM

Row | SMILES | mortality at 200 ppm [%]
23 | OC(c1ccc(Cl)cc1)(c1ccc(Cl)cc1)C(Cl)(Cl)Cl [Dicofol] | 0

Same assay, conditions: Anopheles stephensi; test compound 200 ppm, without TFNA-AM, knockdown after 1 hour, adult females; read-out: Knock Down, without TFNA-AM

Row | SMILES | pest or weed control at 200 ppm [%]
24 | OC(c1ccc(Cl)cc1)(c1ccc(Cl)cc1)C(Cl)(Cl)Cl [Dicofol] | 0

Same assay, conditions: test compound 0.02 ppm plus 2 ppm TFNA-AM, after 24 hours

Row | SMILES | mortality % 24, with TFNA-AM [%]
25 | N#Cc1nn(-c2c(Cl)cc(C(F)(F)F)cc2Cl)c(N)c1[S+]([O-])C(F)(F)F (stereo not drawn) [Fipronil] | 0

Same assay, conditions: test compound 0.02 ppm plus 2 ppm TFNA-AM, after 48 hours

Row | SMILES | mortality % 48, with TFNA-AM [%]
26 | N#Cc1nn(-c2c(Cl)cc(C(F)(F)F)cc2Cl)c(N)c1[S+]([O-])C(F)(F)F (stereo not drawn) [Fipronil] | 0

Same assay, conditions: test compound 0.02 ppm plus 2 ppm TFNA-AM, knockdown after 1 hour

Row | SMILES | Knock Down, with TFNA-AM [%]
27 | N#Cc1nn(-c2c(Cl)cc(C(F)(F)F)cc2Cl)c(N)c1[S+]([O-])C(F)(F)F (stereo not drawn) [Fipronil] | 100

Same assay, conditions: test compound 0.2 ppm plus 2 ppm TFNA-AM, after 24 hours

Row | SMILES | mortality % 24, with TFNA-AM [%]
28 | OC(c1ccc(Cl)cc1)(c1ccc(Cl)cc1)C(Cl)(Cl)Cl [Dicofol] | 20
29 | N#Cc1nn(-c2c(Cl)cc(C(F)(F)F)cc2Cl)c(N)c1[S+]([O-])C(F)(F)F (stereo not drawn) [Fipronil] | 60

Same assay, conditions: test compound 0.2 ppm plus 2 ppm TFNA-AM, after 48 hours

Row | SMILES | mortality % 48, with TFNA-AM [%]
30 | OC(c1ccc(Cl)cc1)(c1ccc(Cl)cc1)C(Cl)(Cl)Cl [Dicofol] | 0
31 | N#Cc1nn(-c2c(Cl)cc(C(F)(F)F)cc2Cl)c(N)c1[S+]([O-])C(F)(F)F (stereo not drawn) [Fipronil] | 100

Same assay, conditions: test compound 0.2 ppm plus 2 ppm TFNA-AM, knockdown after 1 hour

Row | SMILES | Knock Down, with TFNA-AM [%]
32 | OC(c1ccc(Cl)cc1)(c1ccc(Cl)cc1)C(Cl)(Cl)Cl [Dicofol] | 100
33 | N#Cc1nn(-c2c(Cl)cc(C(F)(F)F)cc2Cl)c(N)c1[S+]([O-])C(F)(F)F (stereo not drawn) [Fipronil] | 100

Same assay, conditions: test compound 2 ppm plus 2 ppm TFNA-AM, after 24 hours

Row | SMILES | mortality % 24, with TFNA-AM [%]
34 | OC(c1ccc(Cl)cc1)(c1ccc(Cl)cc1)C(Cl)(Cl)Cl [Dicofol] | 60
35 | N#Cc1nn(-c2c(Cl)cc(C(F)(F)F)cc2Cl)c(N)c1[S+]([O-])C(F)(F)F (stereo not drawn) [Fipronil] | 80

Same assay, conditions: test compound 2 ppm plus 2 ppm TFNA-AM, after 48 hours

Row | SMILES | mortality % 48, with TFNA-AM [%]
36 | OC(c1ccc(Cl)cc1)(c1ccc(Cl)cc1)C(Cl)(Cl)Cl [Dicofol] | 20
37 | N#Cc1nn(-c2c(Cl)cc(C(F)(F)F)cc2Cl)c(N)c1[S+]([O-])C(F)(F)F (stereo not drawn) [Fipronil] | 100

Same assay, conditions: test compound 2 ppm plus 2 ppm TFNA-AM, knockdown after 1 hour

Row | SMILES | Knock Down, with TFNA-AM [%]
38 | OC(c1ccc(Cl)cc1)(c1ccc(Cl)cc1)C(Cl)(Cl)Cl [Dicofol] | 100
39 | N#Cc1nn(-c2c(Cl)cc(C(F)(F)F)cc2Cl)c(N)c1[S+]([O-])C(F)(F)F (stereo not drawn) [Fipronil] | 100

Same assay, conditions: test compound 20 ppm plus 2 ppm TFNA-AM, after 24 hours

Row | SMILES | mortality % 24, with TFNA-AM [%]
40 | OC(c1ccc(Cl)cc1)(c1ccc(Cl)cc1)C(Cl)(Cl)Cl [Dicofol] | 80
41 | N#Cc1nn(-c2c(Cl)cc(C(F)(F)F)cc2Cl)c(N)c1[S+]([O-])C(F)(F)F (stereo not drawn) [Fipronil] | 100

Same assay, conditions: test compound 20 ppm plus 2 ppm TFNA-AM, after 48 hours

Row | SMILES | mortality % 48, with TFNA-AM [%]
42 | OC(c1ccc(Cl)cc1)(c1ccc(Cl)cc1)C(Cl)(Cl)Cl [Dicofol] | 100
43 | N#Cc1nn(-c2c(Cl)cc(C(F)(F)F)cc2Cl)c(N)c1[S+]([O-])C(F)(F)F (stereo not drawn) [Fipronil] | 100

Same assay, conditions: test compound 20 ppm plus 2 ppm TFNA-AM, knockdown after 1 hour

Row | SMILES | Knock Down, with TFNA-AM [%]
44 | OC(c1ccc(Cl)cc1)(c1ccc(Cl)cc1)C(Cl)(Cl)Cl [Dicofol] | 100
45 | N#Cc1nn(-c2c(Cl)cc(C(F)(F)F)cc2Cl)c(N)c1[S+]([O-])C(F)(F)F (stereo not drawn) [Fipronil] | 100

Same assay, conditions: test compound 200 ppm plus 2 ppm TFNA-AM, after 24 hours

Row | SMILES | mortality % 24, with TFNA-AM [%]
46 | OC(c1ccc(Cl)cc1)(c1ccc(Cl)cc1)C(Cl)(Cl)Cl [Dicofol] | 100

Same assay, conditions: test compound 200 ppm plus 2 ppm TFNA-AM, after 48 hours

Row | SMILES | mortality % 48, with TFNA-AM [%]
47 | OC(c1ccc(Cl)cc1)(c1ccc(Cl)cc1)C(Cl)(Cl)Cl [Dicofol] | 100

Same assay, conditions: test compound 200 ppm plus 2 ppm TFNA-AM, knockdown after 1 hour

Row | SMILES | Knock Down, with TFNA-AM [%]
48 | OC(c1ccc(Cl)cc1)(c1ccc(Cl)cc1)C(Cl)(Cl)Cl [Dicofol] | 100
